Tests used:
Assay in all cases: biochemical
Format in all cases: biochemical
[1] = molecular target: T1, 382 unique human kinases (Homo sapiens, UniProt Q7KZI7); conditions: MARK2/PAR-1Ba, 10 uM; for remaining activity at 10 µM: read-out: % Enzyme Activity (relative to DMSO controls)
T1 construct: purchased Reaction Biology (HotSpot contract assay)

[2] = molecular target: T2, 382 unique human kinases (Homo sapiens, UniProt O14920); conditions: IKKb/IKBKB, 10 uM; for remaining activity at 10 µM: read-out: % Enzyme Activity (relative to DMSO controls)
T2 construct: purchased Reaction Biology (HotSpot contract assay)
T2 sequence (O14920 1-756): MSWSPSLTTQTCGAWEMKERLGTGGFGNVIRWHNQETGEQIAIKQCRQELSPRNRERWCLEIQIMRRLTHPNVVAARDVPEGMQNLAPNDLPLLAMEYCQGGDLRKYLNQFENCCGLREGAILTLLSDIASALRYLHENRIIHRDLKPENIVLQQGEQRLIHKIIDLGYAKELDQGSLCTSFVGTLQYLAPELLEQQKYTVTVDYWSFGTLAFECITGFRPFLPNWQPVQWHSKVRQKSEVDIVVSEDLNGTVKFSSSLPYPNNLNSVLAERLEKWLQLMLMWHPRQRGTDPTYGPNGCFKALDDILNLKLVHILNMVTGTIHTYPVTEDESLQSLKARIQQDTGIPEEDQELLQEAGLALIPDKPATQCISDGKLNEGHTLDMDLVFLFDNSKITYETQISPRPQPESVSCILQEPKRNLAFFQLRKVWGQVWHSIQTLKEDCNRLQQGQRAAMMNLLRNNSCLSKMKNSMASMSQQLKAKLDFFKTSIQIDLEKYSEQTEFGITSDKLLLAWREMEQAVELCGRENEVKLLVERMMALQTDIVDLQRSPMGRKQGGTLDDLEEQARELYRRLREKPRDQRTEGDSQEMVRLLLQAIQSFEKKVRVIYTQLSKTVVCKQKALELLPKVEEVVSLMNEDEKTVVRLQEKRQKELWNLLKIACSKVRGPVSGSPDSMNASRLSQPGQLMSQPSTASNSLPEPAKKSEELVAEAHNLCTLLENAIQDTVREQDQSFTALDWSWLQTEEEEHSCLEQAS

[3] = molecular target: T3, 382 unique human kinases (Homo sapiens, UniProt Q16566); conditions: kinase CAMK4, compound 10 uM; for remaining activity at 10 µM: read-out: % Enzyme Activity (relative to DMSO controls)
T3 construct: purchased Reaction Biology (HotSpot contract assay)
T3 sequence (Q16566 1-473): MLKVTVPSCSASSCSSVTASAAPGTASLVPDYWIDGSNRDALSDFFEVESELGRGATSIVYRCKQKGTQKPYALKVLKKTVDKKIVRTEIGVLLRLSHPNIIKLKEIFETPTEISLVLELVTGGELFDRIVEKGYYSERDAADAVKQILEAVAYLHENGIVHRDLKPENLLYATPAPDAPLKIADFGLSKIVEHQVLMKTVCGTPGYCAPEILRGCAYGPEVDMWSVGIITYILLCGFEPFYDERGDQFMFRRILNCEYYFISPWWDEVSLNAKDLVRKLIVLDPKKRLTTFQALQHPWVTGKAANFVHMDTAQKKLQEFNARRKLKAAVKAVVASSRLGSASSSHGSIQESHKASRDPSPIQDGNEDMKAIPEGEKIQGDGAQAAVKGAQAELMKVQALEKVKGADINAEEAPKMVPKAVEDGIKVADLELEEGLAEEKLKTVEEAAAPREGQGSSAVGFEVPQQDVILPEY

[4] = molecular target: T4, 382 unique human kinases (Homo sapiens, UniProt O75460); conditions: kinase ERN1/IRE1, compound 10 uM; for remaining activity at 10 µM: read-out: % Enzyme Activity (relative to DMSO controls)
T4 construct: purchased Reaction Biology (HotSpot contract assay)

[5] = molecular target: T5, 382 unique human kinases (Homo sapiens, UniProt P07949, S904F); conditions: RET (S904F), 10 uM; for remaining activity at 10 µM: read-out: % Enzyme Activity (relative to DMSO controls)
T5 construct: purchased Reaction Biology (HotSpot contract assay)
T5 sequence (P07949 29-1114 S904F): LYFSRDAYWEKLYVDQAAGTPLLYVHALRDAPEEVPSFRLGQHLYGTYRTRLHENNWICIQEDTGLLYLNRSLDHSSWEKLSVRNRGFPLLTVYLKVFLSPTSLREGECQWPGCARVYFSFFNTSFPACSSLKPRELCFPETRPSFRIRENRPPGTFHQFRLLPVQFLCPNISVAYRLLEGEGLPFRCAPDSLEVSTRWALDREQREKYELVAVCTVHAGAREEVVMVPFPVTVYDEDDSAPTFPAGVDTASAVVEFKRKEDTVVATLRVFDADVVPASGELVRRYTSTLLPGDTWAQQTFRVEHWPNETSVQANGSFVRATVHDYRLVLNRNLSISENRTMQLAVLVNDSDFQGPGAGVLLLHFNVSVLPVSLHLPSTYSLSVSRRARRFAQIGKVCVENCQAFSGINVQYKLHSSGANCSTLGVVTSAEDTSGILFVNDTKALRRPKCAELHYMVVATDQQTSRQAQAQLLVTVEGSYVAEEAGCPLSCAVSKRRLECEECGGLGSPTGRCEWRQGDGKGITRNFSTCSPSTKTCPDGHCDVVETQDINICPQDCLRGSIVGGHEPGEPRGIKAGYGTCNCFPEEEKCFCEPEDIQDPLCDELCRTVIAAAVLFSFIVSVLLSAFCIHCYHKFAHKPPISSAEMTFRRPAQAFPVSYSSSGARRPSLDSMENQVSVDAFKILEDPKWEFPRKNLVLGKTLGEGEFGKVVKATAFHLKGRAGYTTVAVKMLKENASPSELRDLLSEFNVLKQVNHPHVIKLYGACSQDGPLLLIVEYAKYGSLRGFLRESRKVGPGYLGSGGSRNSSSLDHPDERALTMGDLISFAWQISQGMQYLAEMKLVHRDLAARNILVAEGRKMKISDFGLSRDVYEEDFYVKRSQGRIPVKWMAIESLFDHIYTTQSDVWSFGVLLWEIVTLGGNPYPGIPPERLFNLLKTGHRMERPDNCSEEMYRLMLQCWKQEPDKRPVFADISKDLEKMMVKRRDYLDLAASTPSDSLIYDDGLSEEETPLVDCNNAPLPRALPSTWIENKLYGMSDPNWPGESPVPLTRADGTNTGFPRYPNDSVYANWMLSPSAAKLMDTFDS

[6] = molecular target: T6, 382 unique human kinases (Homo sapiens, UniProt P27448); conditions: MARK3, 10 uM; for remaining activity at 10 µM: read-out: % Enzyme Activity (relative to DMSO controls)
T6 construct: purchased Reaction Biology (HotSpot contract assay)

[7] = molecular target: T7, 382 unique human kinases (Homo sapiens, UniProt Q13464); conditions: ROCK1, 10 uM; for remaining activity at 10 µM: read-out: % Enzyme Activity (relative to DMSO controls)
T7 construct: purchased Reaction Biology (HotSpot contract assay)
T7 sequence (Q13464 whole entry): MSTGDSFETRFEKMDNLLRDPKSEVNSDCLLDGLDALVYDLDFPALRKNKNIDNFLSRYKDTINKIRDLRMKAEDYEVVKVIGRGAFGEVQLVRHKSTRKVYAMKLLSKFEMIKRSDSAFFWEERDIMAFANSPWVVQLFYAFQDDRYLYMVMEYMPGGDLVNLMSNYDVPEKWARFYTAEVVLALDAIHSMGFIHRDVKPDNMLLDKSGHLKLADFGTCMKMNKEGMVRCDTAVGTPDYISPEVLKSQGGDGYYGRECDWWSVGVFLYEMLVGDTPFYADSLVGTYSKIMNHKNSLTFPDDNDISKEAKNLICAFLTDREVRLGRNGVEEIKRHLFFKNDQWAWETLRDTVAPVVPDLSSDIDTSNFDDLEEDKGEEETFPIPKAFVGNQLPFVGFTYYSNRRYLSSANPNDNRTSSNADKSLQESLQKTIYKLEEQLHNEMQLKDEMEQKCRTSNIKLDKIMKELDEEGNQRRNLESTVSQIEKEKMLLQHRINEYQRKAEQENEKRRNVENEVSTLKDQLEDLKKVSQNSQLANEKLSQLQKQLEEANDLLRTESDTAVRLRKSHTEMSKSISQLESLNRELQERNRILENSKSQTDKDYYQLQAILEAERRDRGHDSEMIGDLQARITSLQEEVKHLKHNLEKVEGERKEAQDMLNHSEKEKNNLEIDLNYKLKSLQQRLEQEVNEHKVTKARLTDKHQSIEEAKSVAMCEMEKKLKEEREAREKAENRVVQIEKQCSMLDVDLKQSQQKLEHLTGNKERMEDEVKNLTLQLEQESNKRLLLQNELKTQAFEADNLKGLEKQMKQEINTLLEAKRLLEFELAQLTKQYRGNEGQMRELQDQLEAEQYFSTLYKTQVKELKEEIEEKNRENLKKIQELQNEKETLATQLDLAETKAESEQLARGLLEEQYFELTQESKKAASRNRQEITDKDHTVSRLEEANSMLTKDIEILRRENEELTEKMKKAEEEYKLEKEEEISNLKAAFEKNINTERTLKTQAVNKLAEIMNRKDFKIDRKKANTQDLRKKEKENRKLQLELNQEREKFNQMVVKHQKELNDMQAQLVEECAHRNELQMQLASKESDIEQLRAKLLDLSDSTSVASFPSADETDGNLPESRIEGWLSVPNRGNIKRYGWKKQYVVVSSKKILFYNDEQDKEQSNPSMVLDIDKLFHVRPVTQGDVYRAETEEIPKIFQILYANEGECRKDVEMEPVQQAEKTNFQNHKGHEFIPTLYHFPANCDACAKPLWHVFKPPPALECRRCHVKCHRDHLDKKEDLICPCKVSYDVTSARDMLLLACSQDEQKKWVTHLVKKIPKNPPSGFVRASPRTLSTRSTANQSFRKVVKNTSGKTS

[8] = molecular target: T8, 382 unique human kinases (Homo sapiens, UniProt P07949, V804E); conditions: RET (V804E), 10 uM; for remaining activity at 10 µM: read-out: % Enzyme Activity (relative to DMSO controls)
T8 construct: purchased Reaction Biology (HotSpot contract assay)
T8 sequence (P07949 29-1114 V804E): as the sequence (P07949 29-1114 S904F) above, with V776E, F876S counted along it

[9] = molecular target: T9, 382 unique human kinases (Homo sapiens, UniProt P22455, V550E); conditions: FGFR4 (V550E), 10 uM; for remaining activity at 10 µM: read-out: % Enzyme Activity (relative to DMSO controls)
T9 construct: purchased Reaction Biology (HotSpot contract assay)
T9 sequence (P22455 22-802 V550E): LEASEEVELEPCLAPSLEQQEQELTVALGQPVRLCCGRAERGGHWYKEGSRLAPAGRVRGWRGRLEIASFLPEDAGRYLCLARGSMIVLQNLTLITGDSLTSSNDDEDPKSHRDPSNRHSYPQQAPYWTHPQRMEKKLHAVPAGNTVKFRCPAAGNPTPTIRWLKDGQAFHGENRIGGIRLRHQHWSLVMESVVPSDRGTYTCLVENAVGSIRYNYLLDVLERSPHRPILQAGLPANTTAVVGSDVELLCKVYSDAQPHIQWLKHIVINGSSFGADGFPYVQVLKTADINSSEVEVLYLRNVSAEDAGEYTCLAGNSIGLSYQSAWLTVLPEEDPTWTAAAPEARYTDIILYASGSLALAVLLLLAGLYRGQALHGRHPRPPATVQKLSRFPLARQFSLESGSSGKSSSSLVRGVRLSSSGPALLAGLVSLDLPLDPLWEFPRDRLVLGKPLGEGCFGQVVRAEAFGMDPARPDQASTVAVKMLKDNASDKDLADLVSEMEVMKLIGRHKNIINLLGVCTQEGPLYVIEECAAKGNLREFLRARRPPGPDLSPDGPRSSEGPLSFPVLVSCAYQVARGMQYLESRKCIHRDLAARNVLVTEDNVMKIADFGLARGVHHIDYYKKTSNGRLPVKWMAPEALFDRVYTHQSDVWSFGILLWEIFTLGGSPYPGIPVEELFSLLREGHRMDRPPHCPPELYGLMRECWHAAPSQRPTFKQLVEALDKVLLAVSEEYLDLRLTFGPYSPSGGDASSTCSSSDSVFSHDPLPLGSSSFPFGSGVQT

[10] = molecular target: T10, 382 unique human kinases (Homo sapiens, UniProt Q9P289); conditions: MST4, 10 uM; for remaining activity at 10 µM: read-out: % Enzyme Activity (relative to DMSO controls)
T10 construct: purchased Reaction Biology (HotSpot contract assay)
T10 sequence (Q9P289 whole entry): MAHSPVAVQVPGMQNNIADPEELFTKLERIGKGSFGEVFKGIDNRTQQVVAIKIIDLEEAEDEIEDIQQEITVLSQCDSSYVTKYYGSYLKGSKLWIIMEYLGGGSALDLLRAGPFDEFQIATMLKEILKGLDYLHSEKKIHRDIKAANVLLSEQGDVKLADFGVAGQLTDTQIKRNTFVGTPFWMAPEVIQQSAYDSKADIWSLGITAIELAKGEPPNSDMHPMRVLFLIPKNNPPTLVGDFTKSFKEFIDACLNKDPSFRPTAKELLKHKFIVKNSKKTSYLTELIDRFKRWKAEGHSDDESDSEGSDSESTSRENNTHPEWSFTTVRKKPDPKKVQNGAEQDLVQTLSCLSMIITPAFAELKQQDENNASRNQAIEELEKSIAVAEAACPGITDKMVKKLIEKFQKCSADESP

[11] = molecular target: T11, 382 unique human kinases (Homo sapiens, UniProt P10721, D816H); conditions: c-Kit (D816H), [ATP] 5 µM, compound 10 uM; for remaining activity at 10 µM: read-out: % Enzyme Activity (relative to DMSO controls)
T11 construct: purchased Reaction Biology (HotSpot contract assay)

[12] = molecular target: T12, 382 unique human kinases (Homo sapiens, UniProt P57059); conditions: SIK1, [ATP] 30 µM
T12 construct: purchased Reaction Biology (HotSpot contract assay)

[13] = molecular target: T13, 382 unique human kinases (Homo sapiens, UniProt P51813); conditions: BMX/ETK, [ATP] 50 µM, compound 10 uM; for remaining activity at 10 µM: read-out: % Enzyme Activity (relative to DMSO controls)
T13 construct: purchased Reaction Biology (HotSpot contract assay)
T13 sequence (P51813 1-675): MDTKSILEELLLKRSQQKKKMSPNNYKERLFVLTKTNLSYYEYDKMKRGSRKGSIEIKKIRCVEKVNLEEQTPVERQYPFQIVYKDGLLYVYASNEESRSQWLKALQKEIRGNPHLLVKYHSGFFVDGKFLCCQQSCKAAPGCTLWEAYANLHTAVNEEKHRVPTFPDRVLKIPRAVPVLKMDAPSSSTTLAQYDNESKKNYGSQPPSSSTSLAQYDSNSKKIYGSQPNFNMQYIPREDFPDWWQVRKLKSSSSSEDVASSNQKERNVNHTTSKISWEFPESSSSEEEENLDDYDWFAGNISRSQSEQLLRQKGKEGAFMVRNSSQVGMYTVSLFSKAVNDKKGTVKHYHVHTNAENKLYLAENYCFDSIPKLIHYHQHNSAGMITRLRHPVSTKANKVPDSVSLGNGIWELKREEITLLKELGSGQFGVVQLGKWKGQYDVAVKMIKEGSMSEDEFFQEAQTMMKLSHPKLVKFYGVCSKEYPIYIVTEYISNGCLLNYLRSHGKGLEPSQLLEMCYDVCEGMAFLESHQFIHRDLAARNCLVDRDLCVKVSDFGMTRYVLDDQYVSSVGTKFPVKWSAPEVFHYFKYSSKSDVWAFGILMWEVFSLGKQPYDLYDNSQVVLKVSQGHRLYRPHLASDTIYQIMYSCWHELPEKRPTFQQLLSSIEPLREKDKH

[14] = compound 10 uM, read-out: % Enzyme Activity (relative to DMSO controls)

T1 sequence (Q7KZI7 whole entry): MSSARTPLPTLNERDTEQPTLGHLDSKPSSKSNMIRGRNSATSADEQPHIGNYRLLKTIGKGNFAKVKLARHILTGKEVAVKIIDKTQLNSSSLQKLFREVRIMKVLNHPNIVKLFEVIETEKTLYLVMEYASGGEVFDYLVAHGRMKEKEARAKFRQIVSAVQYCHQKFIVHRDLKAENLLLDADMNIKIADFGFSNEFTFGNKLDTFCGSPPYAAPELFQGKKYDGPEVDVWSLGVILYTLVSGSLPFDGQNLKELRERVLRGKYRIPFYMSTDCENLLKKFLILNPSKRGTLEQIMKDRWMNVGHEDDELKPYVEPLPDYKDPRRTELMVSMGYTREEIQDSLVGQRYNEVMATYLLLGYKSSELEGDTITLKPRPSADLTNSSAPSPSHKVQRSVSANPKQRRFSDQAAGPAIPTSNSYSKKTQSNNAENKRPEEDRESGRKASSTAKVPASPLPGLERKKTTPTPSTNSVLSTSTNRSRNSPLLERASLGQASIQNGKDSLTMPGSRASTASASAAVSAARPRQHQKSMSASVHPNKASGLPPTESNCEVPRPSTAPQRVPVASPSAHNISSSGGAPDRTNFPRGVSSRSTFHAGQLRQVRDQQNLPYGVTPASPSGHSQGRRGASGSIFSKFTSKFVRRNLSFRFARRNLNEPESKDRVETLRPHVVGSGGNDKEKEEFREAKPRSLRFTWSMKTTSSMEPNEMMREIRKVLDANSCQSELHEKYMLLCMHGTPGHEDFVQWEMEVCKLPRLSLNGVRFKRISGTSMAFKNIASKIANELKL

| Structure (SMILES) | remaining activity at 10 µM [1] [%] | remaining activity at 10 µM [2] [%] | remaining activity at 10 µM [3] [%] | remaining activity at 10 µM [4] [%] | remaining activity at 10 µM [5] [%] | remaining activity at 10 µM [6] [%] | remaining activity at 10 µM [7] [%] | remaining activity at 10 µM [8] [%] | remaining activity at 10 µM [9] [%] | remaining activity at 10 µM [10] [%] | remaining activity at 10 µM [11] [%] | remaining activity at 10 µM [12, 14] [%] | remaining activity at 10 µM [13] [%] | further results |
| --- | --- | --- | --- | --- | --- | --- | --- | --- | --- | --- | --- | --- | --- | --- |
| CC(C)c1cc(-c2n[nH]c(=O)n2-c2ccc3c(ccn3C)c2)c(O)cc1O [Ganetespib (STA9090)] | 75.7 | 66.7 | 91 | 103 | 61.6 |  |  |  |  |  |  |  |  |  |
| CC(C)c1cc(-c2n[nH]c(=O)n2-c2ccc3c(ccn3C)c2)c(O)cc1O [Ganetespib] |  |  |  |  |  | 100 | 91.4 | 92.2 | 96.9 | 93.8 | 46.4 | 11.4 | 46.7 | remaining activity at 1 µM ([12]; compound 1 uM, read-out: % Enzyme Activity (relative to DMSO controls)): 75.9% |
| CCNC(=O)c1noc(-c2cc(C(C)C)c(O)cc2O)c1-c1ccc(CN2CCOCC2)cc1 [Luminespib (AUY-922)] | 104 | 104 | 93.7 | 82.5 | 102 |  |  |  |  |  |  |  |  | % Enzyme Activity (relative to DMSO controls) [1]: 102.26%; % Enzyme Activity (relative to DMSO controls) [2]: 102.97%; % Enzyme Activity (relative to DMSO controls) [3]: 90.30%; % Enzyme Activity (relative to DMSO controls) [4]: 82.42%; % Enzyme Activity (relative to DMSO controls) [5]: 101.49% |
| CCNC(=O)c1noc(-c2cc(C(C)C)c(O)cc2O)c1-c1ccc(CN2CCOCC2)cc1 [Luminespib] |  |  |  |  |  | 111 | 96.4 | 93.3 | 101 | 95.1 | 84.3 | 80.3 | 103 | % Enzyme Activity (relative to DMSO controls) [6]: 108.05%; % Enzyme Activity (relative to DMSO controls) [7]: 95.76%; % Enzyme Activity (relative to DMSO controls) [8]: 91.98%; % Enzyme Activity (relative to DMSO controls) [9]: 100.42%; % Enzyme Activity (relative to DMSO controls) [10]: 93.01%; % Enzyme Activity (relative to DMSO controls) [11]: 83.99%; % Enzyme Activity (relative to DMSO controls) ([12]; compound 10 uM): 79.13%; % Enzyme Activity (relative to DMSO controls) [13]: 102.71% |

— paper PMC8550792, “Evolution of kinase polypharmacology across HSP90 drug discovery” (Cell Chemical Biology, 2021)
